In US20100048722A1, “FORMATION OF ACCUMBENS GluR2-LACKING AMPA RECEPTORS MEDIATES […] COCAINE CRAVING” (ROSALIND FRANKLIN UNIVERSITY OF MEDICINE AND SCIENCE, priority 2008, published 2010):
Like-named read-outs stand apart in the source and are kept apart here.

Test system: GluR2-lacking AMPA receptors
Details: injection into accumbens 15 min before extinction test
Description: Male rats were trained to nose-poke (biochemical and electrophysiology experiments) or lever-press (Naspm accumbens injections experiment) for 6-h/day for 10-12 days; each cocaine infusion was paired with a tone-light or light cue. After self-administration training, the rats were tested for cue-induced cocaine-seeking after 1 or 45 withdrawal days. During testing, lever or nose-poke responding led to contingent presentations of the cue previously paired with cocaine infusions, but not cocaine. Responding on the previously active lever or hole was the operational measure of cocaine-seeking.
The rats were anesthetized using isoflurane gas (Henry Schein, Melville, N.Y.) and flunixin meglumine was administered before surgery (2 mg/kg, i.p.) as an analgesic. A silastic catheter was inserted into the right auricle through the external jugular vein, passed under the skin and fixed in the mid-scapular region. The rats recovered from surgery for at least seven days prior to beginning self-administration training sessions. During this time, catheters were flushed every 24-48 h with sterile 0.9% saline. […]

## Cl.Cl.Cl.NCCCNCCCCNCCCNC(=O)Cc1cccc2ccccc12 [Naspm, 1-Naphthylacetyl spermine trihydrochloride]
Withdrawal day 1
  cue-induced cocaine-seeking (responses on previously active lever): did not alter
Withdrawal day 45
  cue-induced cocaine-seeking (responses on previously active lever): significantly reduced
